Common to all, as to format: functional
One assay relates to A549. Kind of assay: Anticancer activity against human A549 cells after 72 hrs by sulforhodamine B assay. The settings on record: A549, 72 h.
The test system of the next assay is DU-145. Kind of assay: Anticancer activity against human DU145 cells after 72 hrs by sulforhodamine B assay. The conditions noted are these: DU-145, 72 h.
The test system of a further assay is KB. Kind of assay: Anticancer activity against human KB cells after 72 hrs by sulforhodamine B assay.
The test system of another assay is HCT-8. Kind of assay: Anticancer activity against human HCT8 cells after 72 hrs by sulforhodamine B assay. The conditions noted are these: HCT-8, 72 h.
The nature of assay [1]: Anticancer activity against human KBVIN cells after 72 hrs by sulforhodamine B assay.

SMILES strings stand for the structures. Bounds are passed on as bounds.

Consider `COc1ccc2c3c(c4cc(OC)c(OC)cc4c2c1)C[C@H]1CN(Cc2ccccc2)CN1C3`, for which the GI50 in the assay with A549 was 5.3 µM; with DU-145 it was 4.95 µM; with KB it was 5.7 µM; with HCT-8 it was 3.63 µM.
For the molecule `COc1ccc2c3c(c4cc(OC)c(OC)cc4c2c1)C[C@H]1CCOCN1C3`, the GI50 with A549 is 1.79 µM; in the assay with DU-145, 1.82 µM; in the assay with KB it was 1.66 µM; with HCT-8, 1.45 µM.
The molecule `COc1ccc2c3c(c4cc(OC)c(OC)cc4c2c1)CC1CCOCCN1C3` (single isomer, unassigned) came in with a GI50 in the assay with KB of 0.068 µM.
Regarding `COc1ccc2c3c(c4cc(OC)c(OC)cc4c2c1)C[C@H]1CN(C(C)=O)CCN1C3`, the GI50 in the assay on A549 came to 11.7 µM; in the assay on DU-145, 11.9 µM; with KB, 15.5 µM; with HCT-8, 13.8 µM.
As for `COc1ccc2c3c(c4cc(OC)c(OC)cc4c2c1)C[C@H]1CN(C(=O)c2ccccc2)CCN1C3`, the GI50 is 15 µM in the assay on A549, 15.7 µM in the assay on DU-145, > 20 µM with KB and 18.1 µM in the assay with HCT-8.
Regarding `COc1ccc2c3c(c4cc(OC)c(OC)cc4c2c1)C[C@H]1CCN(CC(C)C)CN1C3`, the GI50 in the assay on A549 turned out to be 1.52 µM; in the assay with DU-145 it was 2.3 µM; in the assay with KB, 5.06 µM; in the assay on HCT-8, 1.36 µM.
Regarding `COC(=O)N1CCN2Cc3c(c4cc(OC)c(OC)cc4c4cc(OC)ccc34)C[C@H]2C1`, the GI50 with A549 was 10.9 µM; with DU-145, 12.2 µM; in the assay with KB it was 11.3 µM; in the assay with HCT-8, 12.1 µM.
Consider `COc1ccc2c3c(c4cc(OC)c(OC)cc4c2c1)C[C@@H]1CN(N(C)C)CN1C3`, for which the GI50 in the assay with A549 is 4.15 µM; in the assay with DU-145, 6.01 µM; with KB, 2.38 µM; in assay [1] it was 11 µM.
For `COc1ccc2c3c(c4cc(OC)c(OC)cc4c2c1)C[C@H]1CN(C2CC2)CCN1C3`, the GI50 is > 20 µM in the assay on A549, 17.9 µM in the assay with DU-145, > 20 µM with KB and 13 µM in the assay with HCT-8.
As to `COc1ccc2c3c(c4cc(OC)c(OC)cc4c2c1)C[C@H]1CN(P(=O)(OC)OC)CCN1C3`, the GI50 came out at 12.2 µM in the assay on A549, 14.7 µM in the assay on DU-145, 8.09 µM with KB and 10.4 µM in assay [1].
Regarding `COc1ccc2c3c(c4cc(OC)c(OC)cc4c2c1)C[C@@H]1CN(C(=O)c2ccccc2)CCN1C3`, the GI50 with A549 was determined as 16.4 µM; in the assay on DU-145, 11.9 µM; in the assay on KB it was 12.1 µM; in assay [1], 7.64 µM.
With `COc1ccc2c3c(c4cc(OC)c(OC)cc4c2c1)C[C@H]1CCN(Cc2ccccc2)CN1C3`, the 50% growth inhibitory concentration (GI50) with A549, in the assay on DU-145, in the assay on KB and in the assay on HCT-8 was > 20 µM each time.
On to `COc1ccc2c3c(c4cc(OC)c(OC)cc4c2c1)C[C@@H]1CN(C)CN1C3`, for which the GI50 in the assay with A549 was determined as 0.66 µM; with DU-145, 1 µM; in the assay on KB, 0.79 µM; with HCT-8 it was 0.66 µM.
With `COc1ccc2c3c(c4cc(OC)c(OC)cc4c2c1)C[C@@H]1CN(C(=O)N(C)C)CCN1C3`, the GI50 was found to be 14.1 µM in the assay on A549, 13.1 µM with DU-145, 12.3 µM with KB and 11.4 µM in assay [1].
On to `COc1ccc2c3c(c4cc(OC)c(OC)cc4c2c1)C[C@H]1CN(CC2CC2)CCN1C3`, for which the GI50 in the assay on A549 worked out at 0.79 µM; in the assay on DU-145, 2.94 µM; in the assay with KB it was 6.57 µM; in the assay on HCT-8, 0.25 µM.
Regarding `COc1ccc2c3c(c4cc(OC)c(OC)cc4c2c1)C[C@@H]1CCOCN1C3`, the concentration for 50% growth inhibition (GI50) with A549 was 1.37 µM; in the assay with DU-145 it was 1.29 µM; with KB, 1.1 µM; in the assay with HCT-8, 1.26 µM.
In the case of `COc1ccc2c3c(c4cc(OC)c(OC)cc4c2c1)C[C@@H]1CCN(CC2CC2)CN1C3`, the GI50 with A549 was determined as 1.12 µM; in the assay on DU-145, 1.2 µM; in the assay with KB, 2.1 µM; in assay [1], 5.68 µM.
For `COc1ccc2c3c(c4cc(OC)c(OC)cc4c2c1)C[C@H]1CN(Cc2ccccc2)CCN1C3`, the 50% growth inhibitory concentration (GI50) is > 20 µM with A549, > 20 µM in the assay on DU-145, 16.9 µM with KB and 15.2 µM in assay [1].
For `COc1ccc2c3c(c4cc(OC)c(OC)cc4c2c1)C[C@H]1CNCCN1C3`, the GI50 with A549 came to 1.73 µM; in the assay with DU-145, 2.08 µM; in the assay with KB, 1.79 µM; in the assay with HCT-8 it was 1.62 µM.
With `COc1ccc2c3c(c4cc(OC)c(OC)cc4c2c1)C[C@H]1CCCCN1C3` [CRYPTOPLEURINE], the GI50 came to 0.00138 µM in the assay on A549, 0.00159 µM in the assay on DU-145, 0.00151 µM with KB and 0.00109 µM with HCT-8.
`COc1ccc2c3c(c4cc(OC)c(OC)cc4c2c1)C[C@@H]1CCN(N(C)C)CN1C3`: the GI50 in the assay with A549 was 5.2 µM; in the assay with DU-145 it was 3 µM; in the assay on KB, 2.84 µM; in assay [1], 5.3 µM.
For `COc1ccc2c3c(c4cc(OC)c(OC)cc4c2c1)C[C@H]1CCN(c2ccccc2)CN1C3`, the GI50 with A549, in the assay with DU-145, in the assay on KB and with HCT-8 was > 20 µM each time.
On to `COc1ccc2c3c(c4cc(OC)c(OC)cc4c2c1)C[C@H]1CN(CCO)CCN1C3`, for which the GI50 with A549 came to 14.1 µM; with DU-145, 12.6 µM; in the assay with KB, 8.62 µM; in the assay on HCT-8, 7.41 µM.
Regarding `COc1ccc2c3c(c4cc(OC)c(OC)cc4c2c1)C[C@H]1CN(CCO)CN1C3`, the GI50 with A549 amounted to 4.41 µM; in the assay on DU-145, 6.36 µM; in the assay on KB, 7.83 µM; with HCT-8, 10.8 µM.
Turning to `COc1ccc2c3c(c4cc(OC)c(OC)cc4c2c1)C[C@@H]1COCCN1C3`, the GI50 came to 14 µM in the assay on A549, 7.05 µM with DU-145, 6.68 µM in the assay with KB and 3.45 µM in the assay on HCT-8.
In the case of `COc1ccc2c3c(c4cc(OC)c(OC)cc4c2c1)C[C@H]1CCN(CCO)CN1C3`, the GI50 with A549 came out at 5.68 µM; in the assay on DU-145 it was 1.99 µM; in the assay on KB, 1.59 µM; in the assay on HCT-8, 10.7 µM.
For the molecule `COc1ccc2c3c(c4cc(OC)c(OC)cc4c2c1)C[C@H]1CN(CC(C)C)CN1C3`, the concentration for 50% growth inhibition (GI50) in the assay with A549 was determined as 2 µM; in the assay on DU-145 it was 6.6 µM; in the assay with KB it was 4.4 µM; with HCT-8, 1.82 µM.
Take `COc1ccc2c3c(c4cc(OC)c(OC)cc4c2c1)C[C@H]1CCN(N(C)C)CN1C3`: the GI50 was 1.78 µM with A549, 2.97 µM in the assay with DU-145, 3.08 µM with KB and 2.37 µM with HCT-8.
`COc1ccc2c3c(c4cc(OC)c(OC)cc4c2c1)C[C@@H]1CN(Cc2ccccc2)CN1C3`: the GI50 amounted to 2.68 µM in the assay with A549, 4.62 µM in the assay with DU-145, 3.41 µM in the assay on KB and 1.87 µM in assay [1].
Turning to `COc1ccc2c3c(c4cc(OC)c(OC)cc4c2c1)C[C@@H]1CN(CC(C)C)CCN1C3`, the GI50 was determined as 12.9 µM with A549, 12.2 µM in the assay with DU-145, 11.2 µM in the assay on KB and 9.96 µM in assay [1].
For `COc1ccc2c3c(c4cc(OC)c(OC)cc4c2c1)C[C@H]1CN(C)CCN1C3`, the GI50 in the assay on A549 came out at 9.73 µM; with DU-145, 7.13 µM; in the assay with KB it was 5.3 µM; in the assay with HCT-8, 6.45 µM.
On to `COc1ccc2c3c(c4cc(OC)c(OC)cc4c2c1)C[C@@H]1CN(CC2CC2)CCN1C3`, for which the GI50 in the assay with A549 was > 20 µM; with DU-145, > 20 µM; with KB, > 20 µM; in assay [1], 13.4 µM.
Consider `COc1ccc2c3c(c4cc(OC)c(OC)cc4c2c1)C[C@H]1CN(C2CC2)CN1C3`, for which the GI50 in the assay with A549 stood at 1.8 µM; with DU-145, 3.7 µM; in the assay on KB, 2.71 µM; in the assay on HCT-8, 1.85 µM.
In the case of `COc1ccc2c3c(c4cc(OC)c(OC)cc4c2c1)C[C@H]1CN(C)CN1C3`, the GI50 was determined as 0.66 µM in the assay with A549, 2.03 µM in the assay on DU-145, 1.72 µM in the assay with KB and 1 µM in the assay with HCT-8.
With `CCCN1C[C@@H]2Cc3c(c4ccc(OC)cc4c4cc(OC)c(OC)cc34)CN2C1`, the 50% growth inhibitory concentration (GI50) with A549 came out at 3.94 µM; in the assay with DU-145, 7.38 µM; in the assay with KB, 6.64 µM; in the assay with HCT-8 it was 2.71 µM.
With `COc1ccc2c3c(c4cc(OC)c(OC)cc4c2c1)C[C@H]1CCN(C2CC2)CN1C3`, the GI50 with A549 was 4.3 µM; in the assay with DU-145 it was 14.3 µM; with KB it was 11.5 µM; with HCT-8 it was 5.73 µM.
As to `COc1ccc2c3c(c4cc(OC)c(OC)cc4c2c1)C[C@H]1CN(c2ccccc2)CN1C3`, the GI50 in the assay with A549, with DU-145, with KB and in the assay on HCT-8 was > 20 µM throughout.
On to `COC(=O)CN1CCN2Cc3c(c4cc(OC)c(OC)cc4c4cc(OC)ccc34)C[C@H]2C1`, for which the 50% growth inhibitory concentration (GI50) in the assay with A549 was 14.7 µM; in the assay on DU-145 it was > 20 µM; in the assay on KB, 14.7 µM; with HCT-8, 14 µM.
Consider `COc1ccc2c3c(c4cc(OC)c(OC)cc4c2c1)C[C@H]1CN(N(C)C)CN1C3`, for which the GI50 came out at 1.67 µM in the assay with A549, 2.26 µM with DU-145, 2.31 µM with KB and 2.01 µM in the assay on HCT-8.
Turning to `CCN1CCN2Cc3c(c4cc(OC)c(OC)cc4c4cc(OC)ccc34)C[C@H]2C1`, the GI50 came out at 7.13 µM in the assay on A549, 10.5 µM with DU-145, 8.24 µM in the assay on KB and 9.45 µM in the assay with HCT-8.
Consider `COc1ccc2c3c(c4cc(OC)c(OC)cc4c2c1)C[C@H]1CN(S(C)(=O)=O)CCN1C3`, for which the GI50 in the assay on A549 amounted to 14.5 µM; with DU-145, 17 µM; in the assay on KB, 17.5 µM; with HCT-8, 17.8 µM.
For `COc1ccc2c3c(c4cc(OC)c(OC)cc4c2c1)C[C@H]1CN(CCc2ccccc2)CN1C3`, the 50% growth inhibitory concentration (GI50) in the assay on A549 came out at 6.62 µM; with DU-145 it was 10.2 µM; in the assay with KB it was 10 µM; in the assay on HCT-8, 7.47 µM.

For the origin of these results see ChEMBL document CHEMBL1811876 (J Med Chem, 2011).
